Reference: paper PMC11494653, “Teixobactin “Swapmers” with L Tail Stereochemistry Retain Antibiotic Activity” (The Journal of Organic Chemistry, 2024)
In brackets after ≈: the same amount, converted by molar mass. Positions of bridges follow the written chain, without caps; N, C: chain ends. Non-standard residues stand in square brackets, D forms with d. Residues, ends and D or L forms follow the SMILES beside them. Chains are numbered I, II in the order given. d(aIle) = CC[C@H](C)[C@@H](N)C(=O)O; NMeF = CN[C@@H](Cc1ccccc1)C(=O)O; dNMeF = CN[C@H](Cc1ccccc1)C(=O)O

Assays:
Format in all cases: cell-based
[1] = test system: Bacillus subtilis ATCC 6051; experiment: microbe, parasite or virus in culture; settings: ATCC 6051, 16 h
From the text: (§1) We determined the MIC values of these teixobactin swapmer prodrugs against the Gram-positive bacteria Bacillus subtilis, Staphylococcus epidermidis, methicillin-susceptible Staphylococcus aureus (MSSA), and methicillin-resistant Staphylococcus aureus (MRSA) in a broth microdilution assay as described previously.[9],[10] We used the antibiotic vancomycin as a positive control and the Gram-negative bacterium Escherichia coli as a negative control. The MIC values for Lys10-teixobactin 1, Lys10-teixobactin prodrug 2, Arg10-teixobactin 6, and Arg10-teixobactin prodrug 7 are shown in Table 1 for comparison with the swapmer analogues.
(§2) We performed minimum inhibitory concentration (MIC) assays as previously described.[9] A concise procedure is detailed below.
(§3) Stock solutions of teixobactin analogues were prepared gravimetrically by dissolving an appropriate amount of peptide in 20 mg/mL sterile DMSO. The stock solutions were stored at −20 °C for subsequent experiments.
(§4) Bacillus subtilis (ATCC 6051), Staphylococcus epidermidis (ATCC 14990), methicillin-susceptible Staphylococcus aureus (MSSA) (ATCC 29213), and Escherichia coli (ATCC 10798) were cultured from glycerol stocks in Mueller-Hinton broth containing 0.002% polysorbate 80 overnight in a shaking incubator at 37 °C. Methicillin-resistant Staphylococcus aureus (MRSA) (ATCC 700698) was cultured from a glycerol stock in brain hearth infusion broth containing 0.002% polysorbate 80 overnight in a shaking incubator at 37 °C. After overnight incubation, each culture was diluted with the appropriate media (containing 0.002% polysorbate 80) to 1 × 10^6 colony-forming units (CFU)/mL as previously described.[12],[15],[16] Briefly, we have previously determined the CFU/mL for each bacterium at OD600 = 0.075 for 200 μL of bacterial culture in a 96-well plate. The OD600 of each overnight culture was determined, and then each culture was diluted to OD600 = 0.075. Cultures were further diluted to achieve 1 × 10^6 CFU/mL solutions.
(§5) Aliquots of the 20 mg/mL peptide stock solutions were diluted to make a 64 μg/mL solution in Mueller-Hinton broth containing 0.002% polysorbate 80 and a 64 μg/mL solution in brain heart infusion broth containing 0.002% polysorbate 80. The solutions were mixed by pipetting to ensure homogeneity. A 200-μL aliquot of a 64 μg/mL solution was transferred to a 96-well plate. 2-fold serial dilutions were made with media containing 0.002% polysorbate 80 across the 96-well plate to achieve a final volume of 100 μL in each well (initial concentrations ranging from 64 to 0.0625 μg/mL). A 100-μL aliquot of a 1 × 10^6 CFU/mL bacterial solution was added to each well in the series, resulting in final bacterial concentrations of 5 × 10^5 CFU/mL in each well. As 100 μL of bacteria were added to each well, the concentration of peptide was also diluted 2-fold (final concentrations ranging from 32 μg/mL to 0.03125 μg/mL). Each plate was covered with a lid and incubated at 37 °C for 16 h. The optical density measurements were measured at 600 nm using a 96-well UV–vis plate reader (MultiSkan GO, Thermo Scientific). The MIC values were taken as the lowest concentration that had no bacterial growth. MIC assays for each compound were performed in triplicate to ensure reproducibility.

[2] = test system: Escherichia coli ATCC 10798; experiment: microbe, parasite or virus in culture; settings: ATCC 10798, 16 h
From the text: as §1, §2, §3, §4, §5

[3] = test system: Staphylococcus aureus (MRSA) ATCC 700698; experiment: microbe, parasite or virus in culture; settings: ATCC 700698, 16 h
From the text: as §1, §2, §3, §4, §5

[4] = test system: Staphylococcus aureus (MSSA) ATCC 29213; experiment: microbe, parasite or virus in culture; settings: ATCC 29213, 16 h
From the text: as §1, §2, §3, §4, §5

[5] = test system: Staphylococcus epidermidis ATCC 14990; experiment: microbe, parasite or virus in culture; settings: ATCC 14990, 16 h
From the text: as §1, §2, §3, §4, §5

[6] = test system: Gram-positive bacteria tested; settings: 16 h
From the text: as §1, §2, §3, §4
Aliquots of the 20 mg/mL peptide stock solutions were diluted to make a 64 μg/mL solution in Mueller-Hinton broth containing 0.002% polysorbate 80 and a 64 μg/mL solution in brain heart infusion broth containing 0.002% polysorbate 80. The solutions were mixed by pipetting to ensure homogeneity. A 200-μL aliquot of a 64 μg/mL solution was transferred to a 96-well plate. 2-fold serial dilutions were made with media containing 0.002% polysorbate 80 across the 96-well plate to achieve a final volume of 100 μL in each well (initial concentrations ranging from 64 to 0.0625 μg/mL). […] The optical density measurements were measured at 600 nm using a 96-well UV–vis plate reader (MultiSkan GO, Thermo Scientific). […]

all bacteria tested = experiment: MIC broth microdilution assay, summary over all bacteria; settings: concentration range tested up to 32 μg/mL
From the text: as §1, §2, §3
as §4, with “After overnight incubation, each culture was diluted with the appropriate media (containing 0.002% polysorbate 80) to 1 × 10^6 colony-forming units (CFU)/mL as previously described.[12],[15],[16]” left out, “Cultures were further diluted to achieve 1 × 10^6 CFU/mL solutions.” left out
Aliquots of the 20 mg/mL peptide stock solutions were diluted to make a 64 μg/mL solution in Mueller-Hinton broth containing 0.002% polysorbate 80 and a 64 μg/mL solution in brain heart infusion broth containing 0.002% polysorbate 80. […] The optical density measurements were measured at 600 nm using a 96-well UV–vis plate reader (MultiSkan GO, Thermo Scientific). […]

| MIC B. subtilis [1] | MIC Bacillus subtilis ATCC 6051 [1] | MIC Escherichia coli ATCC 10798 [2] | MIC Staphylococcus aureus (MRSA) ATCC 700698 [3] | MIC Staphylococcus aureus (MSSA) ATCC 29213 [4] | MIC Staphylococcus epidermidis ATCC 14990 [5] | MIC values against the Gram-positive bacteria tested [6] | Compound | fold reduced activity compared to the unswapped analogues 1, 2, 6, and 7 [6] | antibiotic activity in words against all bacteria tested (all bacteria tested) |
| --- | --- | --- | --- | --- | --- | --- | --- | --- | --- |
| ≤ 0.0625 µg/mL | ≤0.0313 µg/mL | >32 µg/mL | 2 µg/mL (≈ 1.64 µM) | 2 µg/mL (≈ 1.64 µM) | 1 µg/mL (≈ 0.822 µM) |  | CC[C@H](C)[C@H](NC(=O)[C@@H](Cc1ccccc1)NC)C(=O)N[C@@H](CO)C(=O)N[C@H](CCC(N)=O)C(=O)N[C@@H](C(=O)N[C@H](C(=O)N[C@@H](CO)C(=O)N[C@H]1C(=O)N[C@@H](C)C(=O)N[C@@H](CCCCN)C(=O)N[C@@H]([C@@H](C)CC)C(=O)O[C@H]1C)[C@@H](C)CC)[C@@H](C)CC [compound 1, Lys10-teixobactin] (H-[dNMeF]IS[dQ][d(aIle)]IS[dT]AKI; ester 8-C) |  |  |
| ≤ 0.0625 µg/mL | ≤0.0313 µg/mL | >32 µg/mL | 1 to 2 µg/mL | 2 µg/mL (≈ 1.64 µM) | 1 µg/mL (≈ 0.822 µM) |  | CC[C@H](C)[C@H](NC(=O)[C@@H](Cc1ccccc1)NC)C(=O)N[C@@H](CO)C(=O)N[C@H](CCC(N)=O)C(=O)N[C@@H](C(=O)N[C@H](C(=O)OC[C@H](N)C(=O)N[C@H]1C(=O)N[C@@H](C)C(=O)N[C@@H](CCCCN)C(=O)N[C@@H]([C@@H](C)CC)C(=O)O[C@H]1C)[C@@H](C)CC)[C@@H](C)CC [compound 2, [Ile6-O-Ser7],Lys10-teixobactin] (I: H-[dNMeF]IS[dQ][d(aIle)]I / II: H-S[dT]AKI; ester I:C-II:1, II:2-II:C) |  |  |
|  | 4 µg/mL (≈ 3.29 µM) | >32 µg/mL | 8 µg/mL (≈ 6.58 µM) | 8 µg/mL (≈ 6.58 µM) | 4 µg/mL (≈ 3.29 µM) | 4 to 8 µg/mL | CC[C@H](C)[C@H](NC(=O)[C@H](CO)NC(=O)[C@@H](NC(=O)[C@@H](Cc1ccccc1)NC)[C@@H](C)CC)C(=O)N[C@@H](CCC(N)=O)C(=O)N[C@H](C(=O)OC[C@H](N)C(=O)N[C@H]1C(=O)N[C@@H](C)C(=O)N[C@@H](CCCCN)C(=O)N[C@@H]([C@@H](C)CC)C(=O)O[C@H]1C)[C@@H](C)CC [compound 3, Ile4,Gln5,[Ile6-O-Ser7],Lys10-teixobactin] (I: H-[dNMeF]ISIQI / II: H-S[dT]AKI; ester I:C-II:1, II:2-II:C) | 2–4 fold |  |
|  | ≥32 µg/mL | >32 µg/mL | >32 µg/mL | >32 µg/mL | >32 µg/mL |  | CC[C@H](C)[C@H](NC(=O)[C@H](Cc1ccccc1)NC)C(=O)N[C@@H](CO)C(=O)N[C@H](C(=O)N[C@@H](CCC(N)=O)C(=O)N[C@H](C(=O)OC[C@H](N)C(=O)N[C@H]1C(=O)N[C@@H](C)C(=O)N[C@@H](CCCCN)C(=O)N[C@@H]([C@@H](C)CC)C(=O)O[C@H]1C)[C@@H](C)CC)[C@@H](C)CC [compound 4, N-Me-L-Phe1,Ile4,Gln5,[Ile6-O-Ser7],Lys10-teixobactin] (I: H-[NMeF]ISIQI / II: H-S[dT]AKI; ester I:C-II:1, II:2-II:C) |  | virtually inactive |
